Source: patent US10117912B2 (priority 2013, dated 2018)
≈ marks a conversion by molar mass, not a printed value. Where two headings read alike, the source gives them in different places.

Tests used:
[1] = tested on: alkaline phosphatase from bovine intestinal mucosa; format: biochemical
[2] = tested on: MDCKII-wt monolayer
[3] = Equilibrium solubility of phenytoin in assay buffer; format: physicochemical
Description: 10 mg of phenytoin was added to a 20 mL scintillation vial containing 2 mL assay buffer, pH 7.4 (122 mM NaCl, 25 mM NaHCO3, 10 mM glucose, 10 mM HEPES, 3 mM KCl, 1.2 mM MgSO4, 1.4 mM CaCl2, and 0.4 mM K2HPO4). The vials were placed in a shaker incubator at different temperatures (28, 32 and 37° C.). After 48 h, drug suspension from vial was centrifuged at 13000 g for 20 min. Using a 0.2 μm syringe filter, the supernatant was filtered into a fresh glass vial and analyzed using HPLC. The experiments were performed in triplicate.

[4] = prodrug S=6.1 with 0.6 IU/mL enzyme, 3 h

For `O=C1NC(c2ccccc2)(c2ccccc2)C(=O)N1COP(=O)(O)O` [fosphenytoin, Fosphenytoin disodium], the kcat [1] was 2880 s⁻¹, the “extent of conversion of prodrug to drug” value ([1]; fosphenytoin 586 μM, various enzyme concentrations) was “Complete conversion” and the “Vmax (Michaelis-Menten)” value ([1]; pH 7.4) was 51.1 ± 1.8 µM/min. The Km ([1]; pH 7.4, read-out: KM (Michaelis-Menten)) was 828 ± 81.6 µM, the “membrane integrity (TEER)” value ([2]; 3 h treatment, pH 7.4, 32° C., enzyme alone or prodrug alone at S=0.8 or S=6.1) was “not compromised” and the TEER value [2, 4] was > 60 ohms/cm^2. The “membrane integrity (TEER), prodrug with enzyme” value [2, 4] was “minor compromise of intercellular tight junctions”.
For `O=C1NC(=O)C(c2ccccc2)(c2ccccc2)N1` [phenytoin], the “effect of temperature on solubility” value ([3]; 28° C. and 37° C., pH 7.4) was “unaffected” and the solubility at 48 h ([3]; aqueous buffer, thermodynamic from solid, pH 7.4 and 32° C., assay buffer, 48 h) was 126 ± 5.6 µM (≈ 31.9 µg/mL).
In the case of alkaline phosphatase, the “membrane integrity (TEER)” value ([2]; pH 7.4) is reported as “not compromised”.
